Assay [1] deals with T1, D2longR (Homo sapiens, UniProt P14416). The assay is described as follows: radioligand competition binding, cell homogenates.
The target in assay [2] is D2longR-mNeonGreen (hD2R-mNeonGreen) (Homo sapiens, UniProt P14416). The assay is described as follows: molecular brightness, confocal microscopy of intact cells. It counts as cell-based.
Assay [3] addresses D3R (Homo sapiens, UniProt P35462). The assay is described as follows: radioligand competition binding, cell homogenates.
For assay [4], the target named is T2, D4R (D4.4R) (Homo sapiens, UniProt P21917).
T2 sequence (P21917 1-419): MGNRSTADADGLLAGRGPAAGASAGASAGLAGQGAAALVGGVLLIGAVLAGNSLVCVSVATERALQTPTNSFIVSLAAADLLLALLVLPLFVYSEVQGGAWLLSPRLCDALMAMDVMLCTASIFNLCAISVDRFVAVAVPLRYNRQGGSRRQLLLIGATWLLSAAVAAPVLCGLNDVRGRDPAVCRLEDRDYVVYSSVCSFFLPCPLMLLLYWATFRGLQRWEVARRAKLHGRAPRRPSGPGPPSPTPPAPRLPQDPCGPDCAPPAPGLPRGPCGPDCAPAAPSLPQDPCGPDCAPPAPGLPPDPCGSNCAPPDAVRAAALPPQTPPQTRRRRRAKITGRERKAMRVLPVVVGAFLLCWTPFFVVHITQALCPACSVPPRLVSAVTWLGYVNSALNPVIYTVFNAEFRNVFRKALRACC
Description: radioligand competition binding, cell homogenates.

Assay [5] addresses T3, D4R (Homo sapiens, UniProt P21917).
T3 sequence (P21917 1-419): T2 sequence (P21917 1-419)
The assay is described as follows: Go1-CASE BRET heterotrimer dissociation assay, antagonist mode. It counts as cell-based.

Assay [6] addresses D5R (Homo sapiens, UniProt P21918). The assay is described as follows: radioligand competition binding, cell homogenates.
Assay [7] addresses D1R (Homo sapiens, UniProt P21728). Description: radioligand competition binding, cell homogenates.
Assay [8] deals with T1, D2longR. Description: Go1-CASE BRET heterotrimer dissociation assay, antagonist mode. The format is cell-based.

Structures are written as SMILES.

T1 sequence (P14416 whole entry): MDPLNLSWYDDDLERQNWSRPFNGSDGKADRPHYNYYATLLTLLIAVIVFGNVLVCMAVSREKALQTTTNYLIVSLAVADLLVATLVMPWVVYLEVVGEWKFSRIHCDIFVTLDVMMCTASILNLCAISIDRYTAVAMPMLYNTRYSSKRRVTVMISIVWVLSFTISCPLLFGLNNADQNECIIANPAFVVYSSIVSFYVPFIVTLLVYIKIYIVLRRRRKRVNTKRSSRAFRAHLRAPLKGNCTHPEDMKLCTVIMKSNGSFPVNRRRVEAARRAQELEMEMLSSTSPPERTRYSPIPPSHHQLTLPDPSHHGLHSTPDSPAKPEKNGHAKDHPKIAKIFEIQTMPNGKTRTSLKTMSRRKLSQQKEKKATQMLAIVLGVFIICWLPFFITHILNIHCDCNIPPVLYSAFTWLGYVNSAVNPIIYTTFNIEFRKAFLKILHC
Sequence of D1R (P21728 whole entry): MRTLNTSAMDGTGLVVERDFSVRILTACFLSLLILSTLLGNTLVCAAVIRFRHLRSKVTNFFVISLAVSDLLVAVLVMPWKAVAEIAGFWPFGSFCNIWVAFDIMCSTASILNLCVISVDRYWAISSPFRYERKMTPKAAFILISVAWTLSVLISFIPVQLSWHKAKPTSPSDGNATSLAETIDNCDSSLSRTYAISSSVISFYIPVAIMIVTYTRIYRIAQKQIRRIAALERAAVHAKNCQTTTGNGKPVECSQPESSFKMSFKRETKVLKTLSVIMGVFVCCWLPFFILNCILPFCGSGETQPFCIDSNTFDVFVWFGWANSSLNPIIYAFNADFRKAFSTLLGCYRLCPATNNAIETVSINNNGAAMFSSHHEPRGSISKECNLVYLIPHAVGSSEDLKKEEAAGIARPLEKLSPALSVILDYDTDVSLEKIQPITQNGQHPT
Sequence of D3R (P35462 whole entry): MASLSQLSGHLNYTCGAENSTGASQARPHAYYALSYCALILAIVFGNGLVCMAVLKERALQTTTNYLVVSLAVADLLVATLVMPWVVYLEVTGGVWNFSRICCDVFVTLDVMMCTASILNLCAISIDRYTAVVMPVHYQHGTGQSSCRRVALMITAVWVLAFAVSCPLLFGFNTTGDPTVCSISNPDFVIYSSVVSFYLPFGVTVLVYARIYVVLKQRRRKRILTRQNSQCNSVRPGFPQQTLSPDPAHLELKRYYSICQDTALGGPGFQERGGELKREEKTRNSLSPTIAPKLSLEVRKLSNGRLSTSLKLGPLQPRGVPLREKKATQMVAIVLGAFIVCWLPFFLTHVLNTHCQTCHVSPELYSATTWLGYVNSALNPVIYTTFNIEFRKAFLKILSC
Sequence of D5R (P21918 whole entry): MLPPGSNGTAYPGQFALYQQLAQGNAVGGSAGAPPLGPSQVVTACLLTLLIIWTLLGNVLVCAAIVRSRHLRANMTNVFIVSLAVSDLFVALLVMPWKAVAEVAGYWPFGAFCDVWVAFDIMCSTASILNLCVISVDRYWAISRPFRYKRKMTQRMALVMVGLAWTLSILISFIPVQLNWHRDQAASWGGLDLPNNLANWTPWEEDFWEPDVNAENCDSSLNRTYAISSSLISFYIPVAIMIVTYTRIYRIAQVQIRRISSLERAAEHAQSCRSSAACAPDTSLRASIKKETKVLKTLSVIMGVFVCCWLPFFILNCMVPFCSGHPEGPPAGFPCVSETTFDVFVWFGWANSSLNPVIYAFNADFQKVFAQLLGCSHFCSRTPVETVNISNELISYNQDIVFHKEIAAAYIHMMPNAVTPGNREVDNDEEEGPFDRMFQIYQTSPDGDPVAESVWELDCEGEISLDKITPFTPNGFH
Sequence of D2longR-mNeonGreen (hD2R-mNeonGreen) (P14416 whole entry): as the sequence (P14416 whole entry) above

`COCC[N+]1=C(C=CC=C2N(CCCCCC(=O)NCCCOCCOCCOCCCNC(=O)CCC(=O)Nc3ccc(CCN4CN(c5ccccc5)C5(CCN(CCCC(=O)c6ccc(F)cc6)CC5)C4=O)cc3)c3ccc(S(=O)(=O)[O-])cc3C2(C)CCCS(=O)(=O)O)C(C)(CCCS(=O)(=O)O)c2cc(S(=O)(=O)O)ccc21` (centres unmarked) [compound 16] gave a pKi in assay [1] (displacement of […] [3H]N-methylspiperone, room temperature, […] min, N = […]) of 6.67 ± 0.07.
In assay [2], `CN(C)c1ccc2c(-c3ccc(C(=O)NCCCC(=O)Nc4ccc(CCN5CN(c6ccccc6)C6(CCN(CCCC(=O)c7ccc(F)cc7)CC6)C5=O)cc4)cc3C(=O)[O-])c3ccc(=[N+](C)C)cc-3oc2c1` [compound 20, 2-(6-(Dimethylamino)-3-(dimethyliminio)-3H-xanthen-9-yl)-5-((4-((4-(2-(8-(4-(4-fluorophenyl)-4-oxobutyl)-4-oxo-1-phenyl-1,3,8-triazaspiro[4.5]decan-3-yl)ethyl)phenyl)amino)-4-oxobutyl)carbamoyl)benzoate dihydrotrifluoracetate] had a dissociation constant (Kd) of 7.59 nM. The Ki in assay [1] is 5.75 nM; in assay [3], 2.63 nM; in assay [4] it was 16.6 nM; in assay [6], 331 nM; in assay [7] it was 67.6 nM. Further, the Kb was 1.66 nM in assay [5] and 0.0295 nM in assay [8].
As to `CN(C)c1ccc2c(-c3ccc(C(=O)NCCCOCCOCCOCCCNC(=O)CCC(=O)Nc4ccc(CCN5CN(c6ccccc6)C6(CCN(CCCC(=O)c7ccc(F)cc7)CC6)C5=O)cc4)cc3C(=O)[O-])c3ccc(=[N+](C)C)cc-3oc2c1` [compound 17, 2-(6-(Dimethylamino)-3-(dimethyliminio)-3H-xanthen-9-yl)-5-((18-((4-(2-(8-(4-(4-fluorophenyl)-4-oxobutyl)-4-oxo-1-phenyl-1,3,8-triazaspiro[4.5]decan-3-yl)ethyl)phenyl)amino)-15,18-dioxo-4,7,10-trioxa-14-azaoctadecyl)carbamoyl)benzoate dihydrotrifluoroacetate], the Ki in assay [1] was 5.62 nM; in assay [3], 5.13 nM; in assay [4], 29.5 nM; in assay [6] it was above 3160 nM; in assay [7], 331 nM.

The record behind these values is paper doi:10.1101/2023.09.25.559398v1 (biorxiv, 2023).
